In brackets after ≈: the same amount, converted by molar mass. Like-named read-outs stand apart in the source and are kept apart here.
Assays:
E. coli K12 ΔacrB = settings: broth microdilution, cation-adjusted Mueller-Hinton Broth II, ~4 × 10⁵ CFU/mL, 37 °C, 24 h, mean of three independent biological replicates, each in technical triplicate
S. aureus HG001‐DRSA = settings: daptomycin-resistant mutant of HG001; broth microdilution, cation-adjusted Mueller-Hinton Broth II, ~4 × 10⁵ CFU/mL, 37 °C, 24 h; mean of three independent biological replicates, each in technical triplicate
[1] = test system: E. coli WO153 (AB1157, recJ asmB1, ΔtolC); settings: broth microdilution, cation-adjusted Mueller-Hinton Broth II, ~4 × 10⁵ CFU/mL, 37 °C, 24 h; mean of three independent biological replicates, each in technical triplicate
[2] = test system: S. aureus DSM 11822 (MDR); settings: broth microdilution, cation-adjusted Mueller-Hinton Broth II, ~4 × 10⁵ CFU/mL, 37 °C, 24 h; mean of three independent biological replicates, each in technical triplicate
[3] = test system: M. tuberculosis H37Ra ATCC 25177
[4] = test system: E. faecium DSM 17050 (VRE, vanA positive); settings: broth microdilution, cation-adjusted Mueller-Hinton Broth II, ~4 × 10⁵ CFU/mL, 37 °C, 24 h; mean of three independent biological replicates, each in technical triplicate
S. aureus N315 (MRSA) = settings: broth microdilution, cation-adjusted Mueller-Hinton Broth II, ~4 × 10⁵ CFU/mL, 37 °C, 24 h; mean of three independent biological replicates, each in technical triplicate
[5] = test system: vancomycin‐resistant E. faecium clinical isolates with reduced susceptibility to daptomycin (n = 26); settings: 24 h
[6] = test system: E. faecalis DSM 12956 (VRE, vanB positive); settings: broth microdilution, cation-adjusted Mueller-Hinton Broth II, ~4 × 10⁵ CFU/mL, 37 °C, 24 h; mean of three independent biological replicates, each in technical triplicate
[7] = test system: S. aureus Mu50 (MRSA/VISA); settings: broth microdilution, cation-adjusted Mueller-Hinton Broth II, ~4 × 10⁵ CFU/mL, 37 °C, 24 h, mean of three independent biological replicates, each in technical triplicate
E. coli K12 ΔtolC = settings: broth microdilution, cation-adjusted Mueller-Hinton Broth II, 37 °C, 24 h, mean of three independent biological replicates, each in technical triplicate
E. faecalis ATCC 29212 = settings: broth microdilution, 37 °C, 24 h

Which “MIC, E. coli K12 ΔacrB” value (E. coli K12 ΔacrB) does the source give for `CN[C@@]1(C)C[C@H](O[C@@H]2[C@H](O)C[C@H](O[C@H]3[C@H](C)O[C@@H](O[C@H]4[C@H](O[C@H]5[C@H](C)O[C@@H](Oc6ccc(C[C@@H](O)C(=O)N[C@H]7CNC(=O)NC[C@@H](C(=O)N[C@H](Cc8ccccc8)C(=O)O)NC(=O)[C@H]([C@H](C)c8c[nH]c9ccc(Cl)cc89)NC7=O)cc6)C[C@]5(C)N)O[C@@H](C)[C@H](O)[C@H]4O)C[C@]3(C)NC)O[C@H]2C)O[C@@H](C)[C@@H]1OC` [Saarvienin A, saarvienin A] here?
Its value is greater than 64 µg/mL.

And the “MIC, E. coli K12 ΔacrB” value (E. coli K12 ΔacrB; listed as 1)?
The value was “non‐susceptible”.

And the “MIC, S. aureus HG001‐DRSA” value (S. aureus HG001‐DRSA)?
Its value is 1 µg/mL (≈ 0.662 µM).

And the “MIC, E. coli WO153 (AB1157, recJ asmB1, ΔtolC)” value [1]?
The value was 2 µg/mL (≈ 1.32 µM).

What about the “MIC, S. aureus DSM 11822 (MDR)” value [2] of the same molecule?
The value was 0.5 µg/mL (≈ 0.331 µM).

And the “MIC, M. tuberculosis H37Ra ATCC 25177” value [3]?
Its value is 32 µg/mL (≈ 21.2 µM).

And the “MIC, E. faecium DSM 17050 (VRE, vanA positive)” value [4]?
Its value is 1 µg/mL (≈ 0.662 µM).

What about the “MIC, S. aureus N315 (MRSA)” value (S. aureus N315 (MRSA)) of the same molecule?
Its value is 0.5 µg/mL (≈ 0.331 µM).

What about the MIC50 [5] of the same molecule?
Its MIC50 is 0.5 µg/mL (≈ 0.331 µM).

And the MIC90 [5]?
The MIC90 was 0.5 µg/mL (≈ 0.331 µM).

And the “MIC Range” value [5]?
The value was 0.5 to 1 µg/mL.

And the “MIC, Enterococcus faecium isolate 1” value [5]?
Its value is 1 µg/mL (≈ 0.662 µM).

And the “MIC, Enterococcus faecium isolate 2” value [5]?
Its value is 0.5 µg/mL (≈ 0.331 µM).

What about the “MIC, Enterococcus faecium isolate 3” value [5] of the same molecule?
The value was 0.5 µg/mL (≈ 0.331 µM).

What about the “MIC, Enterococcus faecium isolate 4” value [5] of the same molecule?
The value was 0.5 µg/mL (≈ 0.331 µM).

What about the “MIC, Enterococcus faecium isolate 5” value [5] of the same molecule?
The value was 0.5 µg/mL (≈ 0.331 µM).

What about the “MIC, Enterococcus faecium isolate 6” value [5] of the same molecule?
Its value is 0.5 µg/mL (≈ 0.331 µM).

What about the “MIC, Enterococcus faecium isolate 7” value [5] of the same molecule?
The value was 0.5 µg/mL (≈ 0.331 µM).

And the “MIC, Enterococcus faecium isolate 8” value [5]?
The value was 0.5 µg/mL (≈ 0.331 µM).

And the “MIC, Enterococcus faecium isolate 9” value [5]?
The value was 0.5 µg/mL (≈ 0.331 µM).

And the “MIC, Enterococcus faecium isolate 10” value [5]?
The value was 0.5 µg/mL (≈ 0.331 µM).

What about the “MIC, Enterococcus faecium isolate 11” value [5] of the same molecule?
The value was 0.5 µg/mL (≈ 0.331 µM).

What about the “MIC, Enterococcus faecium isolate 12” value [5] of the same molecule?
Its value is 0.5 µg/mL (≈ 0.331 µM).

And the “MIC, Enterococcus faecium isolate 13” value [5]?
Its value is 0.5 µg/mL (≈ 0.331 µM).

And the “MIC, Enterococcus faecium isolate 14” value [5]?
The value was 0.5 µg/mL (≈ 0.331 µM).

What about the “MIC, Enterococcus faecium isolate 15” value [5] of the same molecule?
Its value is 0.5 µg/mL (≈ 0.331 µM).

And the “MIC, Enterococcus faecium isolate 16” value [5]?
The value was 0.5 µg/mL (≈ 0.331 µM).

What about the “MIC, Enterococcus faecium isolate 17” value [5] of the same molecule?
The value was 0.5 µg/mL (≈ 0.331 µM).

What about the “MIC, Enterococcus faecium isolate 18” value [5] of the same molecule?
The value was 0.5 µg/mL (≈ 0.331 µM).

And the “MIC, Enterococcus faecium isolate 19” value [5]?
The value was 0.5 µg/mL (≈ 0.331 µM).

What about the “MIC, Enterococcus faecium isolate 20” value [5] of the same molecule?
Its value is 0.5 µg/mL (≈ 0.331 µM).

And the “MIC, Enterococcus faecium isolate 21” value [5]?
Its value is 0.5 µg/mL (≈ 0.331 µM).

What about the “MIC, Enterococcus faecium isolate 22” value [5] of the same molecule?
The value was 0.5 µg/mL (≈ 0.331 µM).

And the “MIC, Enterococcus faecium isolate 23” value [5]?
Its value is 0.5 µg/mL (≈ 0.331 µM).

And the “MIC, Enterococcus faecium isolate 24” value [5]?
Its value is 0.5 µg/mL (≈ 0.331 µM).

What about the “MIC, Enterococcus faecium isolate 25” value [5] of the same molecule?
The value was 0.5 µg/mL (≈ 0.331 µM).

And the “MIC, Enterococcus faecium isolate 26” value [5]?
The value was 0.5 µg/mL (≈ 0.331 µM).

And the “MIC, E. faecalis DSM 12956 (VRE, vanB positive)” value [6]?
Its value is 1 µg/mL (≈ 0.662 µM).

And the “MIC, S. aureus Mu50 (MRSA/VISA)” value [7]?
The value was 1 µg/mL (≈ 0.662 µM).

And the “MIC, S. aureus Mu50 (MRSA/VISA)” value ([7]; listed as 1)?
Its value is 0.5 µg/mL (≈ 0.331 µM).

What about the “MIC, E. coli K12 ΔtolC (tolC‐deficient) + PMBN” value (E. coli K12 ΔtolC; co‐incubated with sub‐lethal concentrations of polymyxin B nonapeptide (PMBN)) of the same molecule?
Its value is 32 µg/mL.

And the “MIC, E. coli K12 ΔtolC” value (E. coli K12 ΔtolC; without PMBN, ~4 × 10⁵ CFU/mL)?
The value was 64 µg/mL (≈ 42.4 µM).

What about the “MIC, E. faecalis ATCC29212” value (E. faecalis ATCC 29212; cation-adjusted Mueller-Hinton Broth II, ~4 × 10⁵ CFU/mL, mean of three independent biological replicates, each in technical triplicate) of the same molecule?
The value was 2 µg/mL (≈ 1.32 µM).

What about the “MIC, E. faecalis ATCC29212” value (E. faecalis ATCC 29212; reference strain in Table S5, MHB II, daptomycin with 50 µg/mL Ca2+, mean of two independent experiments) of the same molecule?
Its value is 2 µg/mL (≈ 1.32 µM).
